Like-named read-outs stand apart in the source and are kept apart here.
Assays:
[1] = target: NMDA receptor-ionophore complex (site labeled by [3H]MK-801); experiment: Inhibition of [3H]MK-801 binding in rat cortical/hippocampal washed membrane preparations; conditions: read-out: IC50 (μM) vs. [3H]MK-801; rat cortical/hippocampal washed membranes
thermal nociception [2] = assay type: in vivo, rats; conditions: 25 mg/kg i.p.
Procedure: In this standard assay, the thermal nociceptive stimulus was 52° C. warm water with the latency to tail flick or withdrawal taken as the endpoint.

thermal nociception [3] = assay type: in vivo, rats; conditions: 25 mg/kg i.p.; remark: listed apart in the source
Procedure: In these experiments, a 52° C. hot plate was used as the nociceptive stimulus.

focal ischemic stroke = experiment: Rat model of focal ischemic stroke (vessel occlusion); assay type: in vivo, rats; conditions: i.p. 2 mg/kg 30 min prior to vessel occlusion and 2 mg/kg 3 hr post-occlusion
motor performance = experiment: Acute motor impairment (rotorod) in mice; conditions: Frings mice, i.p.
Procedure: (§1) In this assay, Frings and CF1 mice were injected with test compound and placed on a knurled rod which rotated at a speed of 6 rpm. The ability of the mice to maintain equilibrium for long periods of time was determined; those mice that were unable to maintain equilibrium on the rotorod for 1 min in each of 3 trials were considered impaired.

in vivo [4] = conditions: Frings, mouse, in vivo
Procedure: as §1

[5] = tested on: maximal electroshock-induced seizures; experiment: Maximal electroshock-induced seizures in rats; assay type: in vivo; conditions: Rattus norvegicus, read-out: ED50, maximal electroshock-induced seizures
[6] = tested on: central muscarinic cholinergic receptor; assay type: binding, rat
[7] = Motor toxicity (TD50) in rats; conditions: rat, in vivo, po
serotonin uptake site = target: T1, serotonin uptake site (Rattus norvegicus, UniProt P31652); experiment: Serotonin uptake binding assay: [3H]citalopram binding to rat forebrain membranes
T1 construct: from tissue; host or cells: rat forebrain membranes (per the assay title)

[8] = tested on: mean arterial blood pressure; conditions: i.v.
[9] = target: T2, norepinephrine uptake site (Rattus norvegicus, UniProt Q63380); experiment: Norepinephrine uptake binding assay: [3H]desipramine binding to rat cortical membranes
T2 construct: from tissue; host or cells: rat cortical membranes (per the assay title)

NMDA receptor = experiment: Inhibition of NMDA/glycine-induced increases in intracellular calcium in cultured rat cerebellar granule cells (RCGC); assay type: cell-based; conditions: NMDA/glycine-induced increases in intracellular calcium, cultured rat cerebellar granule cells; read-out: IC50 (μM) vs. NMDA
dopamine uptake site = target: T3, dopamine uptake site (Cavia porcellus, UniProt H0WCX4); experiment: Dopamine uptake binding assay: [3H]WIN-35,428 binding to guinea pig striatal membranes
T3 construct: from tissue; host or cells: guinea pig striatal membranes (per the assay title)

sound-induced seizures = experiment: Sound-induced seizures in Frings mice (reflex epilepsy); assay type: in vivo; conditions: Mus musculus, Frings mice
in vivo [10] = conditions: rat, po

T3 sequence (H0WCX4 1-619): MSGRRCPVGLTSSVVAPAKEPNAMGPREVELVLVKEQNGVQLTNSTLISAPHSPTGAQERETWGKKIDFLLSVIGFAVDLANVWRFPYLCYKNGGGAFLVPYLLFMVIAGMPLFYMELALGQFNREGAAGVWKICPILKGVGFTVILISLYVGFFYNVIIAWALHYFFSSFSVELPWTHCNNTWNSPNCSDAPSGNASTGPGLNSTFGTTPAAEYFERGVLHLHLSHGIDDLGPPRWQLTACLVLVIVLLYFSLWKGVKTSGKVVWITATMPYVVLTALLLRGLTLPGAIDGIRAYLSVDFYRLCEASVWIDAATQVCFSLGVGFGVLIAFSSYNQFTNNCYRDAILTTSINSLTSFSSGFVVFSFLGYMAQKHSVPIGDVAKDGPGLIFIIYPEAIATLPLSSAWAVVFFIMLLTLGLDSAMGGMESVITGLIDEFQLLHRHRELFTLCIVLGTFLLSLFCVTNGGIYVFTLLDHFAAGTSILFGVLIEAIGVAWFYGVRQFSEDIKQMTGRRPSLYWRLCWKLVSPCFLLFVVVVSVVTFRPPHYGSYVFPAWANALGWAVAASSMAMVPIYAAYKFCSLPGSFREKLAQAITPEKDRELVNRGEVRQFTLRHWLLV
T1 sequence (P31652 whole entry): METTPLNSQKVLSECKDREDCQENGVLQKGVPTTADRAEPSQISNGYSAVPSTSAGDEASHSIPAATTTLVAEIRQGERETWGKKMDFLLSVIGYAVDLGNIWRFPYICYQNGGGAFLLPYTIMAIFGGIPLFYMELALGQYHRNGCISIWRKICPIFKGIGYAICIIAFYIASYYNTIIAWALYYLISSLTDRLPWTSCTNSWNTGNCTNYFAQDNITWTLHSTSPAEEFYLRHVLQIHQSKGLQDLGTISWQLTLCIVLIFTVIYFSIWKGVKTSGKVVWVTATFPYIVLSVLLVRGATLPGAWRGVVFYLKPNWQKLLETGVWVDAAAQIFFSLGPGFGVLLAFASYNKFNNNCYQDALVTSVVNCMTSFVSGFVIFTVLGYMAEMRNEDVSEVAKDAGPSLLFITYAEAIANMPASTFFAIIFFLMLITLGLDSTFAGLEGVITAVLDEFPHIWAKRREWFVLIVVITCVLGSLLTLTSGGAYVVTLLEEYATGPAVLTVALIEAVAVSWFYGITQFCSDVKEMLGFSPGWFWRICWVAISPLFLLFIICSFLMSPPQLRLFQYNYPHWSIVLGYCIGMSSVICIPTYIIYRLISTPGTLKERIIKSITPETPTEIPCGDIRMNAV
T2 sequence (Q63380 1-617): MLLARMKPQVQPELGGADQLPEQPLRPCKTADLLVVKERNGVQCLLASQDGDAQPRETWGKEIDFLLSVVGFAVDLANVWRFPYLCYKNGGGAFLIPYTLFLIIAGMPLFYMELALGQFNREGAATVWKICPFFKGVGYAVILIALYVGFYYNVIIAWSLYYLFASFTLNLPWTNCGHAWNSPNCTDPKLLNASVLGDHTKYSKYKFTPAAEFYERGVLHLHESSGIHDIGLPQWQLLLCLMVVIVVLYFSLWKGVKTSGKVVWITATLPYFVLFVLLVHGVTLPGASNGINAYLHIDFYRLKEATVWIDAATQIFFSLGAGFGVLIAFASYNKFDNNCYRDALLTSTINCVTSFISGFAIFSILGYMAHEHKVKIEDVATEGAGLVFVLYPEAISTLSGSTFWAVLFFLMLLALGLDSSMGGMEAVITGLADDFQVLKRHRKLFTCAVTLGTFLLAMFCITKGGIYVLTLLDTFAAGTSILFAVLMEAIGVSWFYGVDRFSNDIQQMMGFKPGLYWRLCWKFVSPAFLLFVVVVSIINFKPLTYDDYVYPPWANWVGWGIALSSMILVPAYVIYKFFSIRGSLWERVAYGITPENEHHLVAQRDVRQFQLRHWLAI

C[C@H](N)CC(c1cccc(F)c1)c1cccc(F)c1 [Compound 50, 3,3-bis(3-fluorophenyl)-1-methyl-1-propylamine]
IC50 [1]: 0.762 µM | analgesic activity, rat 48° C. tail flick test (thermal nociception [2]): no significant analgesic activity | analgesic activity, rat 52° C. hot plate test (thermal nociception [3]): no significant analgesic activity | neuroprotectant activity in a rat model of focal ischemic stroke (focal ischemic stroke): significant neuroprotectant activity | TD50 (motor impairment) (motor performance): 17.4 mg/kg | TD50 (in vivo [4]; po): 18.9 mg/kg | ED50 ([5]; po): 28 mg/kg | Central muscarinic cholinergic receptor: percent block of [3H]QNB binding ([6]; at 0.1 μM): 11% at | Central muscarinic cholinergic receptor: percent block of [3H]QNB binding ([6]; at 10 μM): 0.184% at | TD50 [7]: 20 mg/kg | Monoamine uptake binding assays: serotonin uptake binding assay, percent block (serotonin uptake site; at 0.1 μM): 10^g75% at | Monoamine uptake binding assays: serotonin uptake binding assay, percent block (serotonin uptake site; at 10 μM): 0.1^h97% at | no significant cardiovascular activity in anesthetized rats at doses up to [8]: up to 5 mg/kg | Monoamine uptake binding assays: norepinephrine uptake binding assay, percent block ([9]; at 0.1 μM): 10% at | Monoamine uptake binding assays: norepinephrine uptake binding assay, percent block ([9]; at 10 μM): 0.1^g78% at | IC50 (NMDA receptor): 0.089 µM | Monoamine uptake binding assays: dopamine uptake binding assay, percent block (dopamine uptake site; at 0.1 μM): 17% at | Monoamine uptake binding assays: dopamine uptake binding assay, percent block (dopamine uptake site; at 10 μM): 0.1^f93% at | ED50 (sound-induced seizures; ip): 2.7 mg/kg | ED50 (sound-induced seizures; oral): 9 mg/kg

COc1ccccc1C(CCN)c1cccc(F)c1 (stereo not shown) [Compound 24, 3-(3-fluorophenyl)-3-(2-methoxyphenyl)-1-propylamine]
IC50 [1]: 0.591 µM | neuroprotectant activity in a rat model of focal ischemic stroke (focal ischemic stroke): no significant neuroprotectant activity | TD50 (in vivo [4]; ip): 16 mg/kg | ED50 ([5]; rats, oral): 46 mg/kg | no significant cardiovascular activity in anesthetized rats at doses up to [8]: up to 10 mg/kg | IC50 (NMDA receptor): 0.206 µM | TD50 (in vivo [10]): 51 mg/kg | ED50 (sound-induced seizures; ip): 5 mg/kg

— patent US6750244B2, “Compounds active at a novel site on receptor-operated calcium channels useful for treatment of neurological disorders and diseases” (NPS Pharmaceuticals, Inc., priority 1993, dated 2004)
